Measurements from publication PMC3206814, “Stereo-Selectivity of Human Serum Albumin to Enantiomeric and Isoelectronic Pollutants Dissected by Spectroscopy, Calorimetry and Bioinformatics” (PLoS ONE, 2011).

Legend:
[1] = target: T1, human serum albumin (HSA) (Homo sapiens, UniProt P02768); assay: isothermal titration calorimetry, two-site sequential model; format: binding; conditions: read-out: Kb(M^-1) (converted)
T1 construct: gene ALB; commercial, essentially fatty acid free, full-length mature monomer of 585 residues, dialyzed, used without further purification
Description: isothermal titration calorimetry, two-site sequential model on human serum albumin (HSA)

[2] = target: T1, human serum albumin (HSA); assay: UV absorption titration at […] nm, […]/dA vs […]/[S] plot; format: binding

T1 sequence (P02768 25-609): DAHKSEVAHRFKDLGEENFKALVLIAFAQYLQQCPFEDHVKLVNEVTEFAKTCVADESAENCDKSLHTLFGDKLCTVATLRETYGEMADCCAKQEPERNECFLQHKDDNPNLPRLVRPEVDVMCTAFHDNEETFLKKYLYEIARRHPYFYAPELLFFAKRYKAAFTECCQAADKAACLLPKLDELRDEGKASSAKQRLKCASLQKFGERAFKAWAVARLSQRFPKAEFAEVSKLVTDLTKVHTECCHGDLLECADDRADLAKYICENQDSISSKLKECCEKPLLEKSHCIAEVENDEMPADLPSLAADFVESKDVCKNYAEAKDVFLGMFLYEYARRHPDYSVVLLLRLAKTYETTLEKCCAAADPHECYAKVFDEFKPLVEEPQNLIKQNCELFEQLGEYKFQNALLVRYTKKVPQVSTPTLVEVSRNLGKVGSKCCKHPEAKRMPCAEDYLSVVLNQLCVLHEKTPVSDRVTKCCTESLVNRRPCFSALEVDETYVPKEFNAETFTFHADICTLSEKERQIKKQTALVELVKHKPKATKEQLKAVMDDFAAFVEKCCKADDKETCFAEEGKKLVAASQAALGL

Kd [1]: 25.3 µM
Kd [2]: 66.9 µM
SMILES: Oc1ccc2ccccc2c1 [2N, naphthalen–2–ol]
